Data: patent US20240409556A1, “BENZOPIPERAZINE AND RELATED ANALOGS FOR INHIBITING YAP/TAZ-TEAD” (Springworks Therapeutics, Inc., priority 2023, published 2024)

Experiments:
Assay type in all cases: cell-based
[1] = tested on: NCI-H226 mesothelioma cell line; assay: Mesothelioma cell line proliferation assay, NCI-H226 (ATPlite); conditions: Homo sapiens, 144 h; NCI-H226 cells, 6 days with compound, cell viability by ATPlite
Description: (§1) Example 57: Activity of Compounds of the Disclosure in Mesothelioma Cell Line Proliferation Assays
(§2) Mesothelioma cell lines, NCI-H226 and NCI-H2052 (both sourced from the ATCC cell culture collection) were plated in 96-well plates (Corning® 96 Well White Polystyrene Microplate clear flat bottom, white polystyrene (TC-Treated)), at 1500 cells/well in full medium (RPMI 1640 ATCC modification with L-glutamine, HEPES, Phenol Red, Sodium Pyruvate, High glucose, Low sodium bicarbonate and 10% fetal bovine serum). Cells were incubated overnight at 37° C. in an incubator with 5% CO2. Then compounds, dissolved in DMSO, were added in dose-response. Cells were incubated with compound dilutions for another 6 days at 37° C. in an incubator with 5% CO2. Cell viability was quantitated using the ATPlite kit (Perkin-Elmer) and the luminescence was read-out using an Envision instrument (Perkin-Elmer). The amount of relative light units produced using the ATPlite kit was used to calculate percent of inhibition.
(§3) The activities of some example compounds are depicted in Table 4. The activity ranges A, B and C refer to EC50 values in the mesothelioma cell line proliferation assay as described as follows: “A”: EC50<1 μM; “B”: 1 μM≤EC50≤10 μM and “C”: EC50>10 μM; NT: not tested.

[2] = tested on: YAP/TAZ-TEAD transcription; assay: Reporter gene assay for measuring the inhibition of YAP/TAZ-TEAD transcription (TEAD-responsive element luciferase reporter in Hek293T cells); conditions: 24 hours incubation
Method in brief: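 HEK293T cells transiently transfected with a TEAD-responsive luciferase reporter were exposed to compounds for 24 h at 37° C/5% CO2, then luminescence was read. Percent inhibition normalised to vehicle (0%) and positive-control inhibitor (100%); IC50 derived.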

[3] = tested on: NCI-H2052 mesothelioma cell line; assay: Mesothelioma cell line proliferation assay, NCI-H2052 (ATPlite); conditions: Homo sapiens, 144 h; NCI-H2052 cells, 6 days with compound, cell viability by ATPlite
Description: as §1, §2, §3

| EC50 [1] [µM] | IC50 ([2]; Homo sapiens, HEK-293T, 24 h) [µM] | EC50 [3] [µM] | IC50 [2] [µM] | SMILES |
| --- | --- | --- | --- | --- |
| < 1 | < 1 | < 1 | – | C=CC(=O)NCC1CN(c2ccc(C(F)(F)F)cc2)c2ccccc2N1C (stereo not drawn) [compound 17, N-((1-methyl-4-(4-(trifluoromethyl)phenyl)-1,2,3,4-tetrahydroquinoxalin-2-yl)methyl)acrylamide] |
| < 1 | – | < 1 | < 1 | C=CC(=O)N1CCN2c3ccccc3N(c3ccc(C(F)(F)F)cc3)CC2C1 (single isomer, unassigned) [14-En1, (R)- or (S)-1-(6-(4-(trifluoromethyl)phenyl)-1,2,4,4a,5,6-hexahydro-3H-pyrazino[1,2-a]quinoxalin-3-yl)prop-2-en-1-one] |
| < 1 | < 1 | < 1 | – | FC(F)(F)c1ccc(N2CCN(Cc3cnc[nH]3)c3ccccc32)cc1 [compound 51, 1-((1H-imidazol-5-yl)methyl)-4-(4-(trifluoromethyl)phenyl)-1,2,3,4-tetrahydroquinoxaline] |
| < 1 | < 1 | < 1 | – | C=CC(=O)NCC1CN(c2ccc(C(F)(F)F)cc2)c2ccccc2N1 (stereo not drawn) [compound 22, N-((4-(4-(trifluoromethyl)phenyl)-1,2,3,4-tetrahydroquinoxalin-2-yl)methyl)acrylamide] |
| < 1 | < 1 | < 1 | – | FC(F)(F)c1ccc(N2CCN(Cc3cn[nH]c3)c3ccccc32)cc1 [compound 63, 1-((1H-pyrazol-4-yl)methyl)-4-(4-(trifluoromethyl)phenyl)-1,2,3,4-tetrahydroquinoxaline] |
| < 1 | < 1 | < 1 | – | CC(=O)N1CCN2c3ncccc3N(c3ccc(C(F)(F)F)cc3)CC2C1 (single isomer, unassigned) [29-En1, (R)- or (S)-1-(5-(4-(trifluoromethyl)phenyl)-5,6,6a,7,9,10-hexahydro-8H-pyrazino[1,2-a]pyrido[3,2-e]pyrazin-8-yl)ethan-1-one] |
| < 1 | < 1 | < 1 | – | CC(=O)N[C@@H]1C[C@@H]2CN(c3ccc(C(F)(F)F)cc3)c3ccc(C)nc3N2C1 [compound 107, N-((6aR,8R)-2-methyl-5-(4-(trifluoromethyl)phenyl)-5,6,6a,7,8,9-hexahydropyrido[3,2-e]pyrrolo[1,2-a]pyrazin-8-yl) acetamide] |
| < 1 | – | < 1 | < 1 | CC(=O)NCC1CN(c2ccc(C(F)(F)F)cc2)c2ccc(C)nc2O1 (single isomer, unassigned) [77-En1, (R)- or (S)-N-((6-methyl-1-(4-(trifluoromethyl)phenyl)-2,3-dihydro-1H-pyrido[2,3-b][1,4]oxazin-3-yl)methyl)acetamide] |
| < 1 | – | < 1 | < 1 | Cc1ccc2c(n1)N1CCC(C(=O)O)CC1CN2c1ccc(C(F)(F)F)cc1 [101-D2, (6aS,8S)— or (6aR,8S)— or (6aR,8R)— or (6aS,8R)-2-methyl-5-(4-(trifluoromethyl)phenyl)-6,6a,7,8,9,10-hexahydro-5H-dipyrido[1,2-a:3′,2′-e]pyrazine-8-carboxylic acid] |
| < 1 | – | < 1 | < 1 | CNC(=O)N1CCN2c3ncccc3N(c3ccc(C(F)(F)F)cc3)CC2C1 (single isomer, unassigned) [52-En2, (R)- or (S)-N-methyl-5-(4-(trifluoromethyl)phenyl)-5,6,6a,7,9,10-hexahydro-8H-pyrazino[1,2-a]pyrido[3,2-e]pyrazine-8-carboxamide] |
| < 1 | – | < 1 | < 1 | CNS(=O)(=O)N1CCN2c3ncccc3N(c3ccc(C(F)(F)F)cc3)CC2C1 (single isomer, unassigned) [45-En2, (R)- or (S)-N-methyl-5-(4-(trifluoromethyl)phenyl)-5,6,6a,7,9,10-hexahydro-8H-pyrazino[1,2-a]pyrido[3,2-e]pyrazine-8-sulfonamide] |
| < 1 | < 1 | < 1 | – | C=CC(=O)NCC1CN(c2ccc(C(F)(F)F)cc2)c2ccccc2O1 (stereo not drawn) [compound 35, N-((4-(4-(trifluoromethyl)phenyl)-3,4-dihydro-2H-benzo[b][1,4]oxazin-2-yl)methyl)acrylamide] |
| < 1 | – | < 1 | < 1 | CC(C)C(=O)N1CCN2c3ncccc3N(c3ccc(C(F)(F)F)cc3)CC2C1 (single isomer, unassigned) [47-En1, (R)- or (S)-2-methyl-1-(5-(4-(trifluoromethyl)phenyl)-5,6,6a,7,9,10-hexahydro-8H-pyrazino[1,2-a]pyrido[3,2-e]pyrazin-8-yl)propan-1-one] |
| < 1 | < 1 | < 1 | – | C=CC(=O)NC[C@H]1CN(c2ccc(C(F)(F)F)cc2)c2cccnc2N1 [38-En1, (S)—N-((1-(4-(trifluoromethyl)phenyl)-1,2,3,4-tetrahydropyrido[2,3-b]pyrazin-3-yl)methyl)acrylamide] |
| < 1 | < 1 | < 1 | – | CNS(=O)(=O)N1CCN2c3ccccc3N(c3ccc(C(F)(F)F)cc3)CC2C1 (stereo not drawn) [compound 32, N-methyl-6-(4-(trifluoromethyl)phenyl)-1,2,4,4a,5,6-hexahydro-3H-pyrazino[1,2-a]quinoxaline-3-sulfonamide] |
| < 1 | – | < 1 | < 1 | CC(=O)NCC1CN(c2ccc(C(F)(F)F)cc2)c2cccnc2O1 (single isomer, unassigned) [49-En1, (R)- or (S)-N-((1-(4-(trifluoromethyl)phenyl)-2,3-dihydro-1H-pyrido[2,3-b][1,4]oxazin-3-yl)methyl)acetamide] |
| < 1 | – | < 1 | < 1 | CC(=O)NCC1CN(c2ccc(C(F)(F)F)cc2)c2ccccc2N1 (stereo not drawn) [compound 34, N-((4-(4-(trifluoromethyl)phenyl)-1,2,3,4-tetrahydroquinoxalin-2-yl)methyl)acetamide] |
| < 1 | < 1 | < 1 | – | C=CC(=O)NC[C@@H]1CN(c2ccc(C(F)(F)F)cc2)c2cccnc2N1 [38-En2, (R)-N-((1-(4-(trifluoromethyl)phenyl)-1,2,3,4-tetrahydropyrido[2,3-b]pyrazin-3-yl)methyl)acrylamide] |
| < 1 | < 1 | < 1 | – | CC(=O)NCC1CN(c2ccc(C(F)(F)F)cc2)c2ccc(C3CC3)nc2O1 (single isomer, unassigned) [81-En1, (R)- or (S)-N-((6-cyclopropyl-1-(4-(trifluoromethyl)phenyl)-2,3-dihydro-1H-pyrido[2,3-b][1,4]oxazin-3-yl)methyl)acetamide] |
| < 1 | – | < 1 | < 1 | O=C(NO)C1CCN2c3ccccc3N(c3ccc(C(F)(F)F)cc3)CC2C1 [116B-En2, (6aS,8S)- or (6aR,8S)- or (6aR,8R)- or (6aS,8R)-N-hydroxy-5-(4-(trifluoromethyl)phenyl)-6,6a,7,8,9,10-hexahydro-5H-pyrido[1,2-a]quinoxaline-8-carboxamide] |
| < 1 | < 1 | < 1 | – | O=C(O)[C@@H]1C[C@@H]2CN(c3ccc(C(F)(F)F)cc3)c3cccnc3N2C1 [compound 102, (6aR,8R)-5-(4-(trifluoromethyl)phenyl)-5,6,6a,7,8,9-hexahydropyrido[3,2-e]pyrrolo[1,2-a]pyrazine-8-carboxylic acid] |
